Tested on: mold
Assay: Mold growth in white pan bread during storage (shelf-life test)
Details: white pan bread mix; test preservative about 3.5% of total mix weight, control 0.27% calcium propionate; same packaging and storage; 90 day test period
Method: The test sample preservative composition as shown in Table 1 was added to white pan bread mix in the final minute of mixing after yeast and salt had been blended into the mixture. The preservative composition comprised about 3.5% of the total weight of the mix. A control sample containing 0.27% calcium propionate was added to another identical sample of white pan bread mix. The control sample molded in 12 days. The test sample remained free of any sign of mold growth during a 90 day test period. Both the test sample and the control sample were packaged and stored in the same conditions throughout the test period.

**Q.** With CCC(=O)[O-].CCC(=O)[O-].[Ca+2] [calcium propionate] as the molecule, how does the “time without mold growth (time until the bread sample molded)” value read?
**A.** The value was 12 days.

From US20030138533A1, “Food and beverage perservative” (Nutraceutical Clinical Laboratories International, Inc., priority 2002, published 2003)
